Reference: patent US10168338B2, “Methods of identifying modulators of sestrin-gator-2 interaction for modulating mTORC1 activity” (Whitehead Institute for Biomedical Research, priority 2014, dated 2019)

Assays:
[1] = molecular target: T1, Sestrin-GATOR2 interaction (Homo sapiens, UniProt P58004); test: Effect of specific amino acids on Sestrin-GATOR2 interaction (FLAG-WDR24 immunoprecipitation, immunoblot); assay type: cell-based; details: HEK-293T stably expressing FLAG-WDR24; starvation/restimulation, pre- or post-lysis addition, washes of immunoprecipitates
T1 construct: To isolate the FLAG-WDR24/endogenous-Sestrin2 complex; endogenous in cells; host or cells: HEK-293T cells stably expressing FLAG-WDR24; Sestrin2 and the other GATOR2 subunits are endogenous
T1 sequence (P58004 1-480): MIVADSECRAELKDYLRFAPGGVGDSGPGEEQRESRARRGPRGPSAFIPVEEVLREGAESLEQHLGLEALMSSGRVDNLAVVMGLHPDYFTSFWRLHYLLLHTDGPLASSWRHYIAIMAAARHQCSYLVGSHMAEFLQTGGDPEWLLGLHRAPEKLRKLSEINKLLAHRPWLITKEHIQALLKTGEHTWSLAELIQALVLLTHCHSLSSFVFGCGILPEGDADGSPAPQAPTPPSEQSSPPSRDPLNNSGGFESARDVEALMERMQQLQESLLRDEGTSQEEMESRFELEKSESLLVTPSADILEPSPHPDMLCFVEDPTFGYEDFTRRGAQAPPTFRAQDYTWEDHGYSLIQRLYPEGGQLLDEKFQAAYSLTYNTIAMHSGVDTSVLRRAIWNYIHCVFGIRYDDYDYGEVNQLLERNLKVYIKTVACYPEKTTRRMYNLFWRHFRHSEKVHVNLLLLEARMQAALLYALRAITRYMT
Protocol: In order to further explore if specific amino acid levels affected the Sestrin-GATOR2 interaction, HEK-293T cells stably expressing the FLAG-tagged GATOR2 component WDR24 (and FLAG-tagged metap2 as a control) were starved of either all amino acids (ALL); only leucine, arginine, and lysine (LRK); only leucine (L); only arginine (R); or only lysine (K) for 50 minutes, or starved for 50 minutes and restimulated for 10 minutes with the indicated amino acids.
HEK-293T cells stably expressing the FLAG-tagged GATOR2 component WDR24 were starved of all amino acids for 50 minutes. Individual amino acids were added pre-lysis to the cell culture media or post-lysis to cell lysates prior to FLAG immunoprecipitation.
Finally, HEK-293T cells stably expressing the FLAG-tagged GATOR2 component WDR24 were starved of all amino acids for 50 minutes. Immunoprecipitates were subjected to washes containing the indicated amounts of leucine or arginine and analyzed along with cell lysates by immunoblotting for the indicated proteins as shown in FIG. 8C.

[2] = molecular target: T2, bacterially-produced Sestrin2 (Homo sapiens, UniProt P58004); test: [3H]-leucine binding to bacterially-produced His-MBP-Sestrin2 on Ni-NTA resin; details: RagA-RagC heterodimer as control
T2 construct: made in house; host or cells: Escherichia coli BL21 DE3 star
T2 sequence (P58004 1-480): T1 sequence (P58004 1-480)
Protocol: Recombinant Sestrin2 was expressed in Escherichia coli (strain BL21 DE3 star) from the His-MBP-TEV-Sestrin2 in pMAL6H-CSXT plasmid. The bacterial cultures were grown at 30° C. to an optical density of 0.4 at which point the temperature was lowered to 18° C. After 30 minutes at 18° C., the cultures were induced overnight at 18° C. with 0.5 mM IPTG. The cells were subsequently resuspended in lysis buffer with TCEP (50 mM Tris pH 7.4, 200 mM NaCl, 5 mM MgCl2, 0.1% CHAPS, 1 mM TCEP, 200 μM leucine, and protease inhibitor tablets), which was then supplemented with lysozyme and crude DNAse. The cells underwent mechanical homogenization and the lysates were cleared by centrifugation and then loaded onto the Ni-NTA resin. […]
For binding assays performed with bacterially-produced proteins, 23.6 μg His-RagA/RagC, 23.6 μg His-MBP-TEV-Sestrin2, or 73.6 μg His-MBP-TEV-Sestrin2 were diluted into 500 μl lysis buffer (50 mM Tris pH 7.4, 200 mM NaCl, 5 mM MgCl2, 0.1% CHAPS) and incubated with 15 μl compact Ni-NTA resin as previously described. […] The samples were then well mixed with a cut tip and 10 μl of each was loaded into scintillation fluid in triplicate and quantified with a TriCarb® Scintillation Counter. Samples performed in parallel were eluted with lysis buffer+300 mM imidazole and analyzed by SDS-PAGE as described above.

[3] = molecular target: T2, bacterially-produced Sestrin2; test: Thermal shift (protein melting) assay; assay type: binding; details: Sestrin2 at 4 μM, Sypro orange; read-out: shift of the melting temperature of Sestrin2
Protocol: Specific binding of leucine to the bacterially produced Sestrin2 was further confirmed by thermal shift assays. The thermal shift (protein melting) assays were performed according to the LightCycler® 480 instruction manual. Briefly, for Sestrin2, 5× Sypro® orange dye and Sestrin2 at 4 μM were combined with or without leucine or arginine (at the indicated concentrations) in thermal shift buffer (100 mM Tris pH 7.4, 100 mM NaCl, and 1 mM DTT) in a volume of up to 10 μl in one well of a LightCycler® Multiwell 384-well plate. 20× Sypro® orange dye was used for the two control proteins, human choline acetyltransferase (ChAT) (at 4 μM) or Physconitrella patens hydroxycinnamoyl transferase (PpHCT) (at 2.5 μM). Each condition was tested in triplicate. The plate was subjected to a protocol in which the temperature increased from 20° to 85° C. at 0.06° C./second. Fluorescence was recorded and plotted over time, and melting temperatures were calculated as described in the LightCycler® 480 instruction manual. Briefly, the negative first derivative of the curve shown (change in fluorescence/change in temperature) was plotted against the temperature. The peak (i.e., lowest point on this curve) reflects the melting temperature. Each reported melting temperature is the mean±SD for three replicates from one experiment.

disruption of the Sestrin-GATOR2 interaction [1]: disrupts the Sestrin-GATOR2 interaction | binding of radiolabelled leucine to bacterially-produced Sestrin2 [2]: bound to bacterially-produced Sestrin2 | ΔTm [3]: ≤ 8.5 °C
SMILES: CC(C)C[C@H](N)C(=O)O [leucine]
